The values that follow are results of earlier work, collected in US10144913B1, “Method to increase the yield of products in plant material” (Arkansas State University-Jonesboro, priority 2012, dated 2018).

One series concerns rotavirus. To be noted: rotavirus infected HT29.f8 cells; Ball et al., 2015.
Another series relates to cannabinoid receptors. Particulars: US 20120165281.
For series [1] the following is noted: in vitro, compared to resveratrol; US 20120165281.
For series [2] the following is noted: in vitro, compared to resveratrol.
For another series, the system named is HL-60 cells. To be noted: caspase-dependent and caspase-independent pathways, Huang et al., 2010.
In series [3] the target is type II cannabinoid receptor (Homo sapiens, UniProt P34972). Particulars: effect of the isoprenyl moiety; Brents et al., 2012.
Chain of type II cannabinoid receptor (P34972 whole entry): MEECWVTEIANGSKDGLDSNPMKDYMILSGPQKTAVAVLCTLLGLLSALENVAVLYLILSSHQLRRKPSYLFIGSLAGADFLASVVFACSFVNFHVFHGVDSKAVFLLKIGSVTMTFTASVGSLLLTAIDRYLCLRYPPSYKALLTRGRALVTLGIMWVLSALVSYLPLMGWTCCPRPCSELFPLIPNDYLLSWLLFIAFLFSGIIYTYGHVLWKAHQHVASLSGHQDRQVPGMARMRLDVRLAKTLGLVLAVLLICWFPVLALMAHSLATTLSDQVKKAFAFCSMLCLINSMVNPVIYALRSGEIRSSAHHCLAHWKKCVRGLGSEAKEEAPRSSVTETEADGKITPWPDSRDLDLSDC

In the case of `Oc1ccc(C=Cc2cc(O)cc(O)c2)cc1` [resveratrol, reference compound], the “antiviral activity (inhibiting rotavirus replication)” value in the series with rotavirus is on record as “not observed”.

As for `CC(C)/C=C/c1c(O)cc(/C=C/c2ccc(O)c(O)c2)cc1O` [arachidin-1], in the series on cannabinoid receptors, the “affinity to cannabinoid receptors” value is reported as “have affinity”. For the same compound, the “antiviral activity (inhibiting rotavirus replication)” value with rotavirus was “exhibited antiviral activity”. Besides, the metabolic profiles result in series [1] is recorded as “favorable metabolic profiles”. For the same compound, the antioxidant activities entry in series [2] is given as “higher antioxidant activities than resveratrol”. Moreover, the anticancer activity entry with HL-60 cells was “anticancer activity”. The “binding affinity to type II cannabinoid receptor” value in series [3] is given as “improved binding affinity”.

For the compound `CC(C)/C=C/c1c(O)cc(/C=C/c2ccc(O)cc2)cc1O` [arachidin-3], the “affinity to cannabinoid receptors” value in the series with cannabinoid receptors is listed as “have affinity”. In addition, the “antiviral activity (inhibiting rotavirus replication)” value in the series with rotavirus is on record as “exhibited antiviral activity”. Also, the metabolic profiles result in series [1] is given as “favorable metabolic profiles”. In series [3], the “binding affinity to type II cannabinoid receptor” value was “improved binding affinity”.
